{
  "source": "ChEMBL document CHEMBL4616608",
  "about": "“Discovery of a lead series of potent benzodiazepine 5-HT2C receptor agonists with high selectivity in functional and binding assays” (Bioorg Med Chem Lett, 2020)",
  "key": {"[1]": {"experiment": "in vivo", "conditions": "rat, cerebrospinal fluid, po, 10 mg/kg"}, "[2]": {"experiment": "in vivo", "conditions": "rat, plasma, po, 10 mg/kg"}, "[3]": {"experiment": "in vivo", "conditions": "rat, brain, po, 10 mg/kg"}},
  "data": [
    {"smiles": "CC1(C)CN2CCNCc3ccc(F)c1c32", "values": [
      {"measurement": "concentration at 1 h", "setting": "[1]", "value": 170, "unit": "ng/mL"},
      {"measurement": "concentration at 1 h", "setting": "[2]", "value": 608, "unit": "ng/mL"},
      {"measurement": "concentration at 1 h", "setting": "[3]", "value": 8860, "unit": "ng/g"}
    ]}
  ]
}
